Source: the kinase profiling compilation of Christmann-Franck et al. (2016)

Experiments:
Assay in all cases: KINOMEscan competition binding
Details in all cases: compound 10.0 µM
[1] = target: PIK3C2B (human) (UniProt O00750)
[2] = target: PIK3C2G (human) (UniProt O75747)
[3] = test system: EGFR (human), P00533 [T790M]
[4] = target: PRKCH (human) (UniProt P24723)
[5] = target: MAPK14 (human) (UniProt Q16539)
[6] = target: MAP3K2 (human) (UniProt Q9Y2U5)
[7] = target: MAP3K5 (human) (UniProt Q99683)
[8] = target: TRPM6 (human) (UniProt Q9BX84)
[9] = target: MST1R (human) (UniProt Q04912)
[10] = target: CSNK2A1 (human) (UniProt P68400)
Chain of CSNK2A1 (human) (P68400 whole entry, looked up): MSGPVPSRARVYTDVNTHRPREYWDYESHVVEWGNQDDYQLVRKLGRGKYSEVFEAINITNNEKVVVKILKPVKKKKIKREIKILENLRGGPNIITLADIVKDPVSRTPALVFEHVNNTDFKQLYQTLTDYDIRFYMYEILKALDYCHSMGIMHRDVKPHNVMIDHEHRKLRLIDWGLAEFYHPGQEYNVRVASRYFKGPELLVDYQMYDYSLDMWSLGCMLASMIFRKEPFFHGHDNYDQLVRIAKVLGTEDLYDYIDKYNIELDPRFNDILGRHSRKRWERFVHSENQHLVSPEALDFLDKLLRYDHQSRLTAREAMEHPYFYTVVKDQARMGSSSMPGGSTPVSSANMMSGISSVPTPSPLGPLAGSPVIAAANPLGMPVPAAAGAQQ

[11] = target: KIT (human) (UniProt P10721)
Chain of KIT (human) (P10721 whole entry, looked up): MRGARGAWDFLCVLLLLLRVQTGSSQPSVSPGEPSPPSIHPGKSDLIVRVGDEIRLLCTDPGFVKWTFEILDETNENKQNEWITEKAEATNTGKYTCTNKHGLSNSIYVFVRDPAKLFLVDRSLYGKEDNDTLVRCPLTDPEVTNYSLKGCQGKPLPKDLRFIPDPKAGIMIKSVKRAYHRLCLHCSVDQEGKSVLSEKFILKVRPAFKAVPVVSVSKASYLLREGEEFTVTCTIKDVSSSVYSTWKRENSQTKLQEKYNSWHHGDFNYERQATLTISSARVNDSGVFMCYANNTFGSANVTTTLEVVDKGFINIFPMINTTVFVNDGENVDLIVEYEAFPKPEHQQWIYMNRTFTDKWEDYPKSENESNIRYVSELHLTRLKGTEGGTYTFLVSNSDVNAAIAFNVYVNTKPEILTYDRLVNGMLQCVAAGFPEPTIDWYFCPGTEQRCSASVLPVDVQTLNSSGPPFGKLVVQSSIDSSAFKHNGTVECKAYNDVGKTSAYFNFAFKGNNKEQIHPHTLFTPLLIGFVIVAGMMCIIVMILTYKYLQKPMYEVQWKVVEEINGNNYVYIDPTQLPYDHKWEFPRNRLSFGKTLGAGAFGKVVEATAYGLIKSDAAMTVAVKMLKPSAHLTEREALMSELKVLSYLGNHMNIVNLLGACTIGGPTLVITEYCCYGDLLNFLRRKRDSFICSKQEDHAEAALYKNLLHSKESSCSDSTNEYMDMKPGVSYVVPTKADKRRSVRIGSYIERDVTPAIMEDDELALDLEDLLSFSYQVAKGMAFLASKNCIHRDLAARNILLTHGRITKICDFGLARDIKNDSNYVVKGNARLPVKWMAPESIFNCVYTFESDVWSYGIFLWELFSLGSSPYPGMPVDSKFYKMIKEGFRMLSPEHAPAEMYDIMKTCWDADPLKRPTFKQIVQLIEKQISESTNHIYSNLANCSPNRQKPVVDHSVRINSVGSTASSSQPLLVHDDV

[12] = target: TBK1 (human) (UniProt Q9UHD2)
[13] = target: TNK2 (human) (UniProt Q07912)
[14] = target: MAP3K9 (human) (UniProt P80192)
Chain of MAP3K9 (human) (P80192 whole entry, looked up): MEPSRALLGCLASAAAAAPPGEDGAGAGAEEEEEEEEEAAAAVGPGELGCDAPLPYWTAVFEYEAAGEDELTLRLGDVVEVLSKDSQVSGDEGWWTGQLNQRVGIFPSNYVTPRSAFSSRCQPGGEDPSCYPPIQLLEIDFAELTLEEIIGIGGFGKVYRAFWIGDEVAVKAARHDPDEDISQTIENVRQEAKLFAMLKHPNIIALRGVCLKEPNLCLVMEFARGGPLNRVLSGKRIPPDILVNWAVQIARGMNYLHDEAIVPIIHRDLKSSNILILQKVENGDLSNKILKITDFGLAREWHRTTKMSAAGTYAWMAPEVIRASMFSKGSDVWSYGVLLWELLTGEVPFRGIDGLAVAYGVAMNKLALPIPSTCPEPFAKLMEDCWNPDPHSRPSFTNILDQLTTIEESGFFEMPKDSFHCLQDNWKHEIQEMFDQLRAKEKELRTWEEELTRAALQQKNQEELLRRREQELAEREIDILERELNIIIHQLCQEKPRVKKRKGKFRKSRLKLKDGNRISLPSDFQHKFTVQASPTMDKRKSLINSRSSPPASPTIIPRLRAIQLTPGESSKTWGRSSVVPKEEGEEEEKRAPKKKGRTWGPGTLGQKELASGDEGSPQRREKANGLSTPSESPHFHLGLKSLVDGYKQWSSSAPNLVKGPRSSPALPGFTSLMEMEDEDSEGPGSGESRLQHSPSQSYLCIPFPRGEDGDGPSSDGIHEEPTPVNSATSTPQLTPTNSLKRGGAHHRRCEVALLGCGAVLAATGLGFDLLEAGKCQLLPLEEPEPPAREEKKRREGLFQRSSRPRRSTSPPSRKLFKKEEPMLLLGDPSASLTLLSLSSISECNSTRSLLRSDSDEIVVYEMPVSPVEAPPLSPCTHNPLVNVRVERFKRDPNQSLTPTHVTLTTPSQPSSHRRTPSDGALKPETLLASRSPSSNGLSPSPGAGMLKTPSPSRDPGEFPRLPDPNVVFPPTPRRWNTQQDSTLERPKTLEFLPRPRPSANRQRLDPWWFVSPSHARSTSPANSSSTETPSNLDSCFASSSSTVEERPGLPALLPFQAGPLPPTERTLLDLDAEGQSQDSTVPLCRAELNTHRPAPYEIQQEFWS

[15] = target: EIF2AK2 (human) (UniProt P19525)
[16] = target: PIM2 (human) (UniProt Q9P1W9)
Chain of PIM2 (human) (Q9P1W9 whole entry, looked up): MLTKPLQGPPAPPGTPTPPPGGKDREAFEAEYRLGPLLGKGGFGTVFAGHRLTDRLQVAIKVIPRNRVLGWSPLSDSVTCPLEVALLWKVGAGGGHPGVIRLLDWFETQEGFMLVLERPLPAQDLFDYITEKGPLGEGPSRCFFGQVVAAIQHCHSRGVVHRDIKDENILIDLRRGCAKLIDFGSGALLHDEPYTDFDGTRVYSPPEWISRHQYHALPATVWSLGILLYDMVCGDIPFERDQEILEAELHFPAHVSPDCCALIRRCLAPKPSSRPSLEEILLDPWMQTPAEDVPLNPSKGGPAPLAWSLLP

[17] = target: NEK4 (human) (UniProt P51957)
[18] = target: CSNK1A1L (human) (UniProt Q8N752)
[19] = target: RPS6KA1 KD2 (human) (UniProt Q15418)
[20] = target: CSNK1G3 (human) (UniProt Q9Y6M4)
[21] = target: MAP3K13 (human) (UniProt O43283)
[22] = target: PIP5K1A (human) (UniProt Q99755)
[23] = target: INSR (human) (UniProt P06213)
[24] = target: MARK3 (human) (UniProt P27448)
Chain of MARK3 (human) (P27448 whole entry, looked up): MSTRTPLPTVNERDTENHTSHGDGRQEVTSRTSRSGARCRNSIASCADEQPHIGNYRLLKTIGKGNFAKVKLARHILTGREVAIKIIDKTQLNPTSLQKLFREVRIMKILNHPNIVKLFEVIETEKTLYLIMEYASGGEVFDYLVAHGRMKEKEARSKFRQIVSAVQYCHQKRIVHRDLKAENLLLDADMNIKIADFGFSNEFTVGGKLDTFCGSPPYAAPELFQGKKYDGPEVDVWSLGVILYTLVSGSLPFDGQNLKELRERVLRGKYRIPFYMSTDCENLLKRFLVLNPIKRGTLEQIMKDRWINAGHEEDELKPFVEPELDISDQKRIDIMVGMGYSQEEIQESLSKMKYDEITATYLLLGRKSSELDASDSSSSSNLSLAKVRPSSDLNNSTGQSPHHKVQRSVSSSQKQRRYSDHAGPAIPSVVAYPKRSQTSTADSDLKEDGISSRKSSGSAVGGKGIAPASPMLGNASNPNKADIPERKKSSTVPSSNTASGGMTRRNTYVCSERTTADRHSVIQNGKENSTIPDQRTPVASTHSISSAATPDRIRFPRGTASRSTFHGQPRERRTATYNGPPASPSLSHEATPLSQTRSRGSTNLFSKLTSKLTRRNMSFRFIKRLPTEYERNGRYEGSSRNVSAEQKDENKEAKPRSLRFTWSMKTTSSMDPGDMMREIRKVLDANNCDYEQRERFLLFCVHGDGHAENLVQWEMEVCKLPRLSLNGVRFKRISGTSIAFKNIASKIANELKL

[25] = target: MAP3K12 (human) (UniProt Q12852)
[26] = target: SRC (human) (UniProt P12931)
Chain of SRC (human) (P12931 whole entry, looked up): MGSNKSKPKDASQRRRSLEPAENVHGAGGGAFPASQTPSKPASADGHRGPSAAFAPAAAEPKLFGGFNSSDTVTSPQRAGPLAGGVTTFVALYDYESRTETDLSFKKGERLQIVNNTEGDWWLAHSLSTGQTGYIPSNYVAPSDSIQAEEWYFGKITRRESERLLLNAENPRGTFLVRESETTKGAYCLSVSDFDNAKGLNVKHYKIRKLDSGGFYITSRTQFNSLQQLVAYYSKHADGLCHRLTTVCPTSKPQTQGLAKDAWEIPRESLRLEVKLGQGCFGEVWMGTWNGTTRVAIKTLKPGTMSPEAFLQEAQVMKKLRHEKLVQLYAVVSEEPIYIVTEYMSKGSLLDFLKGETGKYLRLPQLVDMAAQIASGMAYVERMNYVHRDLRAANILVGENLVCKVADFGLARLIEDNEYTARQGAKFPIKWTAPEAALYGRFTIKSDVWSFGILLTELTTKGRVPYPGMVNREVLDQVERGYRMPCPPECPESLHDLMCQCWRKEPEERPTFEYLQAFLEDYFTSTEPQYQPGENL

[27] = target: LIMK1 (human) (UniProt P53667)
[28] = target: RET (human) (UniProt P07949)
[29] = target: MAPK9 (human) (UniProt P45984)
[30] = test system: MET (human), P08581 [Y1235D]
[31] = target: ERBB3 (human) (UniProt P21860)
[32] = target: FGFR3 (human) (UniProt P22607)
[33] = target: MAPK13 (human) (UniProt O15264)

Chain of MAPK14 (human) (Q16539 whole entry, looked up): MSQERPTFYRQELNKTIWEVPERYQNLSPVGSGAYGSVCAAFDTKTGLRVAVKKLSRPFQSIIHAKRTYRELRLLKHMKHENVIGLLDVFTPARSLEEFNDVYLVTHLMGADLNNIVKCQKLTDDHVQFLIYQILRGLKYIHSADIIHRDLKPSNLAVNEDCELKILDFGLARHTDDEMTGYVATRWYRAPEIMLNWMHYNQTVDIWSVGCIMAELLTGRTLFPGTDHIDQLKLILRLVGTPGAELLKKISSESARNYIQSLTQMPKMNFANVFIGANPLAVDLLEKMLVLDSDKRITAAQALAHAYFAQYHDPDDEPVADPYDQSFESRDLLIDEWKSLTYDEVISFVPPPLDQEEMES
Chain of MAP3K2 (human) (Q9Y2U5 whole entry, looked up): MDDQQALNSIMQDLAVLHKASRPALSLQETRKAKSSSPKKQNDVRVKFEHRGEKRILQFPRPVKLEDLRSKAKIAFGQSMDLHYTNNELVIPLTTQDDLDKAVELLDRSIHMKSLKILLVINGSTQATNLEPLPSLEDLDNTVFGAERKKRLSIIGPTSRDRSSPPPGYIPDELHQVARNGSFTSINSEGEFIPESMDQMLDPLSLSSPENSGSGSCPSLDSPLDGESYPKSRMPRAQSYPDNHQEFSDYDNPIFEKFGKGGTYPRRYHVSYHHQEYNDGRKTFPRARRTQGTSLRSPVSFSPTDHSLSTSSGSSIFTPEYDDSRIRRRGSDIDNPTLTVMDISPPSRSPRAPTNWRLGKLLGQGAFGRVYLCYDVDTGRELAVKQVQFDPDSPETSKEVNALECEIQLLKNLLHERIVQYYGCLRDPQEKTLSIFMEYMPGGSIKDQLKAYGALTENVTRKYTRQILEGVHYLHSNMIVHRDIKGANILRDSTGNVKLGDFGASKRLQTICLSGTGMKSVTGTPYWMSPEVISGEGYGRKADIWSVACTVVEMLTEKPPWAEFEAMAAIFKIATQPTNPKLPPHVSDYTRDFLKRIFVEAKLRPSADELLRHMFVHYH

| SMILES | kinase still bound, per cent of control [1] [%] | kinase still bound, per cent of control [2] [%] | kinase still bound, per cent of control [3] [%] | kinase still bound, per cent of control [4] [%] | kinase still bound, per cent of control [5] [%] | kinase still bound, per cent of control [6] [%] | kinase still bound, per cent of control [7] [%] | kinase still bound, per cent of control [8] [%] | kinase still bound, per cent of control [9] [%] | kinase still bound, per cent of control [10] [%] | kinase still bound, per cent of control [11] [%] | kinase still bound, per cent of control [12] [%] | kinase still bound, per cent of control [13] [%] | kinase still bound, per cent of control [14] [%] | kinase still bound, per cent of control [15] [%] | kinase still bound, per cent of control [16] [%] | kinase still bound, per cent of control [17] [%] | kinase still bound, per cent of control [18] [%] | kinase still bound, per cent of control [19] [%] | kinase still bound, per cent of control [20] [%] | further results |
| --- | --- | --- | --- | --- | --- | --- | --- | --- | --- | --- | --- | --- | --- | --- | --- | --- | --- | --- | --- | --- | --- |
| O=c1cc(N2CCOCC2)oc2c(-c3cccc4c3sc3ccccc34)cccc12 | 20 | 16 | 100 | 100 | 98 | 100 | 100 | 100 | 97 | 74 | 80 | 84 | 97 | 100 | 72 | 84 | 100 | 92 | 75 | 100 | kinase still bound, per cent of control [21]: 100%; kinase still bound, per cent of control [22]: 100%; kinase still bound, per cent of control [23]: 66%; kinase still bound, per cent of control [24]: 99%; kinase still bound, per cent of control [25]: 90%; kinase still bound, per cent of control [26]: 90%; kinase still bound, per cent of control [27]: 100%; kinase still bound, per cent of control [28]: 100%; kinase still bound, per cent of control [29]: 39%; kinase still bound, per cent of control [30]: 59%; kinase still bound, per cent of control [31]: 72%; kinase still bound, per cent of control [32]: 80%; kinase still bound, per cent of control [33]: 99% |
| CCN1CCN(C(=O)Cc2ccc(Nc3ncc(F)c(Nc4ccc(C(=O)Nc5ccccc5Cl)cc4)n3)cc2)CC1 | 93 | 39 | 13 | 100 | 97 | 31 | 100 | 96 | 100 | 18 | 1 | 5.6 | 10 | 17 | 15 | 100 | 63 | 100 | 45 | 100 | kinase still bound, per cent of control [21]: 44%; kinase still bound, per cent of control [22]: 0%; kinase still bound, per cent of control [23]: 78%; kinase still bound, per cent of control [24]: 80%; kinase still bound, per cent of control [25]: 71%; kinase still bound, per cent of control [26]: 18%; kinase still bound, per cent of control [27]: 9.8%; kinase still bound, per cent of control [28]: 1.8%; kinase still bound, per cent of control [29]: 0.75%; kinase still bound, per cent of control [30]: 23%; kinase still bound, per cent of control [31]: 45%; kinase still bound, per cent of control [32]: 20%; kinase still bound, per cent of control [33]: 100% |
